As usually defined, the IC50 is the concentration at which inhibition is half-maximal. Low values mean greater potency in that assay, high ones weaker potency in that assay. In general, CC50 refers to the concentration at which the toxic effect on the cells reaches its halfway point. The low end stands for greater toxicity to the cells, the high end for lower toxicity to the cells.

Here are results for 16 compounds from patent publication US6774235B2, “Trisubstituted 1,3,5-triazine derivatives” (Janssen Pharmaceutica N.V., priority 1998, dated 2004).

One data set deals with HIV-1 (wildtype IIIB). The experiment in a line: microbe, parasite or virus in culture. Format: cell-based. Particulars: Human immunodeficiency virus 1, MT4; dose achieving 50% protection of HIV-1 (IIIB) infected MT-4 cells, MTT, OD 540 nm. Here is the method:
(§1) A rapid, sensitive and automated assay procedure was used for the in vitro evaluation of anti-HIV agents. An HIV-1 (wildtype IIIB) transformed T4-cell line, MT-4, which was previously shown (Koyanagi et al., Int. J Cancer, 36, 445-451, 1985) to be highly susceptible to and permissive for HIV infection, served as the target cell line. Inhibition of the HIV-induced cytopathic effect was used as the end point. […] The percent protection achieved by the compound in HIV-infected cells was calculated by the following formula: [formula]
(§2) whereby (ODT)HIV is the optical density measured with a given concentration of the test compound in HIV-infected cells; (ODC)HIV is the optical density measured for the control untreated HIV-infected cells; (ODC)MOCK is the optical density measured for the control untreated mock-infected cells; all optical density values were determined at 540 nm. […] The ratio of CC50 to IC50 was defined as the selectivity index (SI).

A short description of data set [1]: Cytotoxicity in mock-infected MT-4 cells (MTT). Particulars: human, mock-infected MT-4 cells. How it is done:
as §1, §2

In the data set with HIV-1 (wildtype IIIB), `Cc1cccc(Cl)c1Nc1nc(N)nc(Nc2ccc(C#N)cc2)n1` [Compound 7, 4-[[4-amino-6-[(2-chloro-6-methylphenyl)amino]-1,3,5-triazin-2-yl]amino]benzonitrile] returned an IC50 of 5 nM. In addition, in data set [1], the CC50 was 49900 nM.
The corresponding values for `Cc1cc(C)c(Nc2nc(NO)nc(Nc3ccc(C#N)cc3)n2)c(C)c1` [Compound 11, 4-[[4-(hydroxyamino)-6-[(2,4,6-trimethylphenyl)amino]-1,3,5-triazin-2-yl]amino]-benzonitrile] are 1 nM and 6300 nM.
The corresponding values for `CCc1cccc(C)c1Nc1nc(N)nc(Nc2ccc(C#N)cc2)n1` [Compound 16, 4-[[4-amino-6-[(2-ethyl-6-methylphenyl)amino]-1,3,5-triazin-2-yl]amino]benzonitrile] are 6 nM and 8100 nM.
The corresponding values for `N#Cc1ccc(Nc2nc(N)nc(Sc3c(Cl)cccc3Cl)n2)cc1` [Compound 19, 4-[[4-amino-6-[(2,6-dichlorophenyl)thio]-1,3,5-triazin-2-yl]amino]benzonitrile] are 4 nM and 40600 nM.
In the data set on HIV-1 (wildtype IIIB), `N#Cc1ccc(Nc2nc(NO)nc(Nc3c(Cl)cc(Cl)cc3Cl)n2)cc1` [Compound 23, 4-[[4-(hydroxyamino)-6-[(2,4,6-trichlorophenyl)amino]-1,3,5-triazin-2-yl]amino]-benzonitrile] returned an IC50 of 1 nM. The same compound registered a CC50 in data set [1] of 7600 nM.
The corresponding values for `Cc1cc(Br)cc(Cl)c1Oc1nc(N)nc(Nc2ccc(C#N)cc2)n1` [Compound 33, 4-[[4-amino-6-(4-bromo-2-chloro-6-methylphenoxy)-1,3,5-triazin-2-yl]amino]benzonitrile] are 2 nM and > 10000 nM.
Taken in the same sequence, the figures for `CC(=O)c1cc(C)c(Oc2nc(N)nc(Nc3ccc(C#N)cc3)n2)c(C)c1` [Compound 35, 4-[[4-(4-acetyl-2,6-dimethylphenoxy)-6-amino-1,3,5-triazin-2-yl]amino]benzonitrile] were 1 nM and 32100 nM.
The corresponding values for `N#Cc1ccc(Nc2nc(N)nc(Oc3c(Br)cc(Br)cc3Br)n2)cc1` [Compound 40, 4-[[4-amino-6-(2,4,6-tribromophenoxy)-1,3,5-triazin-2-yl]amino]benzonitrile] are 5 nM and > 10000 nM.
In turn, `Cc1cc([N+](=O)[O-])cc(C)c1Oc1nc(N)nc(Nc2ccc(C#N)cc2)n1` [Compound 41, 4-[[4-amino-6-(4-nitro-2,6-dimethylphenoxy)-1,3,5-triazin-2-yl]amino]benzonitrile] yielded a half-inhibitory concentration (IC50) with HIV-1 (wildtype IIIB) of 2 nM. The compound also returned a CC50 in data set [1] of 12200 nM.
Taken in the same sequence, the figures for `N#Cc1ccc(Nc2nc(N)nc(Sc3ccc(Cl)cc3Cl)n2)cc1` [Compound 54, 4-[[4-amino-6-[(2,4-dichlorophenyl)thio]-1,3,5-triazin-2-yl]amino]benzonitrile] were 4 nM and 57300 nM.
`Cc1cc(Br)cc(Cl)c1Nc1nc(N)nc(Nc2ccc(C#N)cc2)n1` [Compound 63, 4-[[4-amino-6-[(4-bromo-2-chloro-6-methylphenyl)amino]-1,3,5-triazin-2-yl]amino]-benzonitrile] yielded an IC50 in the data set with HIV-1 (wildtype IIIB) of 3 nM. It took 48000 nM to reach half-maximal cytotoxicity in data set [1] (CC50).
The corresponding values for `Cc1cc(C)c(Nc2nc(N)nc(Nc3ccc(C#N)cc3)n2)c(Cl)c1` [Compound 65, 4-[[4-amino-6-[(2-chloro-4,6-dimethylphenyl)amino]-1,3,5-triazin-2-yl]amino]-benzonitrile] are 1 nM and 48500 nM.
The corresponding values for `N#Cc1ccc(Nc2nc(N)nc(Nc3c(Cl)cc(Cl)cc3C(F)(F)F)n2)cc1` [Compound 71, 4-[[4-amino-6-[[2,4-dichloro-6-(trifluoromethyl)phenyl]amino]-1,3,5-triazin-2-yl]-amino]benzonitrile] are 10 nM and 8200 nM.
Taken in the same sequence, the figures for `CC(C)c1cc(Br)c(Nc2nc(N)nc(Nc3ccc(C#N)cc3)n2)c(Br)c1` [Compound 77, 4-[[4-amino-6-[[2,6-dibromo-4-(1-methylethyl)phenyl]amino]-1,3,5-triazin-2-yl]-amino]benzonitrile] were 3 nM and 47000 nM.
`N#Cc1ccc(Nc2nc(N)nc(Oc3cccc4[nH]ccc34)n2)cc1` [Compound 83]: the half-maximal inhibitory concentration (IC50) with HIV-1 (wildtype IIIB) was determined as 473 nM. This compound displayed a 50% cytotoxic concentration (CC50) in data set [1] of 59600 nM.
Taken in the same sequence, the figures for `CC(=O)c1cc(C)c2c(c1Oc1nc(N)nc(Nc3ccc(C#N)cc3)n1)CCC2` [Compound 84, 4-[[4-[(5-acetyl-2,3-dihydro-7-methyl-1H-inden-4-yl)oxy]-6-amino-1,3,5-triazin-2-yl]amino]benzonitrile] were 1 nM and 54100 nM.
